Reference: ChEMBL document CHEMBL1208694, “Aryl sulfonamides containing tetralin allylic amines as potent and selective bradykinin B1 receptor antagonists” (Bioorg Med Chem Lett, 2010)

How the values were obtained:
[1] = target: T1, B1 bradykinin receptor (Homo sapiens, UniProt P46663); assay: Antagonist activity at human bradykinin B1 receptor assessed as inhibition of Lys-desArg9-BK-induced calcium flux; assay type: functional
T1 sequence (P46663 whole entry): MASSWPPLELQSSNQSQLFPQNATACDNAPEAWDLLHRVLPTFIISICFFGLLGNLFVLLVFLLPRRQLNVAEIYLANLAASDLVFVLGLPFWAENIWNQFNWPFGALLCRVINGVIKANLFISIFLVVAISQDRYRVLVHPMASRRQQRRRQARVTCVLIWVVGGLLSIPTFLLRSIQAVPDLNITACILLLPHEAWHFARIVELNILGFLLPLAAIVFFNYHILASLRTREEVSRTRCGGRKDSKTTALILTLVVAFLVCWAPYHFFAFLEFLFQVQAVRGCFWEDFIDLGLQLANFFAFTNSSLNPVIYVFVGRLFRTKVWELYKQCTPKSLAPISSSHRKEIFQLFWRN

[2] = target: T1, B1 bradykinin receptor; assay: Displacement of [3H]Lys-desArg9-BK from human bradykinin B1 receptor
[3] = Volume of distribution at steady state in rat at 1 mg/kg, iv; assay type: ADME, organism-based; parameters: dose 1 mg/kg, route intravenous; details: in vivo, read-out: Vdss
[4] = Half life in rat at 1 mg/kg, iv; assay type: ADME, organism-based; parameters: dose 1 mg/kg, route intravenous; details: in vivo
[5] = Metabolic stability in rat liver microsomes; assay type: ADME, Microsome; details: read-out: Stability
[6] = Oral bioavailability in rat at 10 mg/kg; details: in vivo
[7] = Clearance in rat at 1 mg/kg, iv; assay type: ADME, organism-based; parameters: dose 1 mg/kg, route intravenous; details: in vivo

| Structure (SMILES) | IC50 [1] [µM] | Ki [2] [µM] | Vd [3] [L/kg] | half-life [4] [h] | microsomal CLint [5] [µL/min/mg] | bioavailability [6] [%] | clearance [7] [mL/min/kg] |
| --- | --- | --- | --- | --- | --- | --- | --- |
| C=C(CN(C)C)c1ccc2c(c1)CCC[C@H]2NC(=O)C[C@@H](NS(=O)(=O)c1cccc(C(F)(F)F)c1)c1ccccc1 | 0.154 | 0.078 | – | – | – | – | – |
| C=C(CNCCO)c1ccc2c(c1)CCC[C@H]2NC(=O)C[C@@H](NS(=O)(=O)c1cccc(C(F)(F)F)c1)c1ccccc1 | 0.032 | 0.021 | – | – | – | – | – |
| C=C(CNCCOC)c1ccc2c(c1)CCC[C@H]2NC(=O)C[C@@H](NS(=O)(=O)c1cccc(C(F)(F)F)c1)c1ccccc1 | 0.023 | 0.042 | – | – | – | – | – |
| C=C(CNCC1CC1)c1ccc2c(c1)CCC[C@H]2NC(=O)C[C@@H](NS(=O)(=O)c1cccc(C(F)(F)F)c1)c1ccccc1 | 0.105 | 0.016 | – | – | – | – | – |
| C=C(CNC(C)(C)C)c1ccc2c(c1)CCC[C@H]2NC(=O)C[C@@H](NS(=O)(=O)c1cccc(C(F)(F)F)c1)c1ccccc1 | 0.078 | 0.011 | – | – | – | – | – |
| C=C(CNC(C)C)c1ccc2c(c1)CCC[C@H]2NC(=O)C[C@@H](NS(=O)(=O)c1cccc(C(F)(F)F)c1)c1ccccc1 | 0.042 | 0.0046 | 5.86 | 2.4 | 240 | 15 | 33.2 |
| C=C(CNC1CCC1)c1ccc2c(c1)CCC[C@H]2NC(=O)C[C@@H](NS(=O)(=O)c1cccc(C(F)(F)F)c1)c1ccccc1 | 0.044 | 0.0034 | – | – | – | – | – |
| C=C(CN1CCCC1)c1ccc2c(c1)CCC[C@H]2NC(=O)C[C@@H](NS(=O)(=O)c1cccc(C(F)(F)F)c1)c1ccc(F)cc1 | 0.0013 | – | – | – | – | – | – |

Results, then the compound that gave them:

| IC50 [1] [µM] | Ki [2] [µM] | Vd [3] [L/kg] | half-life [4] [h] | microsomal CLint [5] [µL/min/mg] | bioavailability [6] [%] | clearance [7] [mL/min/kg] | Structure (SMILES) |
| --- | --- | --- | --- | --- | --- | --- | --- |
| 0.316 | 0.034 | – | – | – | – | – | CC(CN1CCCCC1)c1ccc2c(c1)CCC[C@H]2NC(=O)C[C@@H](NS(=O)(=O)c1cccc(C(F)(F)F)c1)c1ccccc1 (stereo partly specified) |
| 0.088 | 0.014 | – | – | – | – | – | O=C(C[C@@H](NS(=O)(=O)c1cccc(C(F)(F)F)c1)c1ccccc1)N[C@@H]1CCCc2cc(C3(CN4CCCCC4)CC3)ccc21 |
| 0.041 | 0.0033 | – | – | – | – | – | C=C(CN1CCCCC1)c1ccc2c(c1)CCC[C@H]2NC(=O)C[C@@H](NS(=O)(=O)c1cccc(C(F)(F)F)c1)c1ccccc1 |
| 0.0097 | 0.0007 | 3.62 | 1.5 | 282 | 10 | 30.6 | C=C(CN1CCCC1)c1ccc2c(c1)CCC[C@H]2NC(=O)C[C@@H](NS(=O)(=O)c1cccc(C(F)(F)F)c1)c1ccccc1 |
| 0.0039 | 0.0035 | – | – | – | – | – | C=C(CN1CC[C@H](O)C1)c1ccc2c(c1)CCC[C@H]2NC(=O)C[C@@H](NS(=O)(=O)c1cccc(C(F)(F)F)c1)c1ccccc1 |
| 0.015 | 0.012 | – | – | – | – | – | C=C(CN1CC[C@@H](O)C1)c1ccc2c(c1)CCC[C@H]2NC(=O)C[C@@H](NS(=O)(=O)c1cccc(C(F)(F)F)c1)c1ccccc1 |
| 0.206 | 0.012 | – | – | – | – | – | C=C(CN1CCC1)c1ccc2c(c1)CCC[C@H]2NC(=O)C[C@@H](NS(=O)(=O)c1cccc(C(F)(F)F)c1)c1ccccc1 |
| 0.047 | 0.03 | – | – | – | – | – | C=C(CNC1CCCC1)c1ccc2c(c1)CCC[C@H]2NC(=O)C[C@@H](NS(=O)(=O)c1cccc(C(F)(F)F)c1)c1ccccc1 |
